Legend:
Jurkat = assay: CCK-8 proliferation, Jurkat; format: cell-based, Human; settings: Homo sapiens, Jurkat; CCK-8; 96 hours; read-out: Inhibitory activity (IC50) on tumor cell proliferation, Jurkat
Method in brief: (§1)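 Tumor cells were cultured at 37°C with 5% CO2, seeded, and after 24h treated with compounds at 10 concentrations starting at 10µM (5-fold serial dilutions).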

CCRF-CEM = assay: CCK-8 proliferation, CCRF-CEM; format: cell-based, Human; settings: Homo sapiens, CCRF-CEM; CCK-8; 96 hours; read-out: Inhibitory activity (IC50) on tumor cell proliferation, CCRF-CEM
Method in brief: as §1

DU-145 = assay: CCK-8 proliferation, DU-145; format: cell-based; settings: Homo sapiens, 96 hours, read-out: Inhibitory activity (IC50) on tumor cell proliferation, DU-145
Protocol: (§2) The tumor cells used herein were cultured in a cell culture medium listed in table A1 at 37°C in an incubator with 5% CO2. Prior to experimentation, all cell lines used were correctly identified by STR profiling, and tested negative for mycoplasma contamination using a mycoplasma detection kit through routine screenings. Table A1. Tumor cells and cell culture medium used in the present disclosure
(§3) IC50 values of the compounds of the present disclosure (including the compounds in Table 1, and compounds of examples) were measured using the Meilun Cell Counting Kit-8 kit from Dalian Meilun Biotech Co., Ltd. Assay details are as follows: tumor cells were seeded in a 96-well plate at a density listed in Table A2. After 24h, 100 µL of the inoculated cells were treated with 0.5µL of the compounds of the present disclosure (including the compounds in Tables 1 and 2, and compounds of examples) at 10 different successively decreasing concentrations (starting at the highest concentration of 10µM; 5-fold serial dilutions). After the cells were treated with the compounds of the present disclosure for a period of time, the cell viability detection reagent was added to the culture medium for cell viability assessment according to the instructions provided with the CCK-8 kit. […] The growth inhibition of the compounds of the present disclosure on cells was plotted by Prism Graphpad software, and the IC50 values of the compounds of the present disclosure were calculated therefrom. […] Seeding protocol and treatment time for tumor cells

SU-DHL-4 = assay: CCK-8 proliferation, SU-DHL-4; format: cell-based; settings: Homo sapiens, 72 hours, read-out: Inhibitory activity (IC50) on tumor cell proliferation, SU-DHL-4
Protocol: as §2, §3

CDK9 = molecular target: T1, CDK9 (Homo sapiens, UniProt P50750); assay: Western blot degradation of CDK9 (MDA-MB-231 Cell); format: cell-based; settings: Table D13
T1 construct: evaluate the effects of the compounds of the present disclosure on the expression of target proteins in cells; endogenous in cells; host or cells: MDA-MB-231
T1 sequence (P50750 whole entry): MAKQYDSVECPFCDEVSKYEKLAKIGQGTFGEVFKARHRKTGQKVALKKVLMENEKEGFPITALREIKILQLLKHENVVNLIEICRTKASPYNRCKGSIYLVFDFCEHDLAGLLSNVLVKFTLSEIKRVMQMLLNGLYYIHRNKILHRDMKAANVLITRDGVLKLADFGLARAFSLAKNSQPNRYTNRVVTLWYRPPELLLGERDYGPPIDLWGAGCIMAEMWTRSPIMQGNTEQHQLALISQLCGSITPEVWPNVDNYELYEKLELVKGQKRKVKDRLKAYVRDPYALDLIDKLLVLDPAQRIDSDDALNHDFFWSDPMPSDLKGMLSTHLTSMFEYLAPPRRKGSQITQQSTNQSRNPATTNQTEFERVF
Protocol: (§4) Conventional Western blot assay was performed to evaluate the effects of the compounds of the present disclosure on the expression of target proteins in cells.
(§5) (1) Cell Seeding and Protein Harvesting: The selected cells were processed according to the cell seeding procedure and protein harvesting procedure in Table III-2. Table III-2 Cell Seeding and Protein Harvesting Procedures
(§6) (2) To the collected supernatant, 5X SDS sample loading buffer was added, followed by denaturation at 95°C for 5 minutes. The denatured samples were then separated by SDS-PAGE electrophoresis on a polyacrylamide gel. Proteins were transferred to a nitrocellulose membrane (0.45 µm NC membrane), blocked with blocking buffer at room temperature for 1 hour, and subjected to antibody incubation and development procedures according to the antibody manufacturer's instructions (Cell Signaling Technology).
(§7) Half-Maximal Degradation Concentration value (the drug concentration required for degrading proteins by 50%, abbreviated as DC50) reads method: comparing the grayscale values of Western blot bands from drug-treated samples with those from blank DMSO-treated controls, and identifying the drug concentration range at which the grayscale value is half that of the DMSO-treated control bands.
(§8) DC50 values can be calculated using ImageJ software to measure grayscale values of Western blot bands from drug-treated samples. The concentration-response curve is fitted to estimate the drug concentration corresponding to half the grayscale value.
(§9) Target protein remaining (%) refers to the percentage of target protein remaining in hPBMC cells after treatment with protein degrader compounds.
(§10) Calculation method for target protein remaining (%): Use ImageJ software to measure grayscale values of Western blot bands from drug (protein degrader)-treated samples. The grayscale value of drug-treated bands is divided by that of internal control protein bands, and the resulting quotient is normalized to obtain the relative percentage of remaining target protein after protein degrader treatment.
(§11) Target protein degradation rate (%) = 100% - target protein remaining (%).

TMD8 = assay: CCK-8 proliferation, TMD8; format: cell-based; settings: Homo sapiens, TMD8; CCK-8; 72 hours; read-out: Inhibitory activity (IC50) on tumor cell proliferation, TMD8
Protocol: as §2, §3

ER = molecular target: T2, ER (Homo sapiens, UniProt P03372); assay: Western blot degradation of ER (MCF-7 Cell); format: cell-based; settings: Table D12
T2 construct: evaluate the effects of the compounds of the present disclosure on the expression of target proteins in cells; endogenous in cells; host or cells: MCF-7
T2 sequence (P03372 1-595): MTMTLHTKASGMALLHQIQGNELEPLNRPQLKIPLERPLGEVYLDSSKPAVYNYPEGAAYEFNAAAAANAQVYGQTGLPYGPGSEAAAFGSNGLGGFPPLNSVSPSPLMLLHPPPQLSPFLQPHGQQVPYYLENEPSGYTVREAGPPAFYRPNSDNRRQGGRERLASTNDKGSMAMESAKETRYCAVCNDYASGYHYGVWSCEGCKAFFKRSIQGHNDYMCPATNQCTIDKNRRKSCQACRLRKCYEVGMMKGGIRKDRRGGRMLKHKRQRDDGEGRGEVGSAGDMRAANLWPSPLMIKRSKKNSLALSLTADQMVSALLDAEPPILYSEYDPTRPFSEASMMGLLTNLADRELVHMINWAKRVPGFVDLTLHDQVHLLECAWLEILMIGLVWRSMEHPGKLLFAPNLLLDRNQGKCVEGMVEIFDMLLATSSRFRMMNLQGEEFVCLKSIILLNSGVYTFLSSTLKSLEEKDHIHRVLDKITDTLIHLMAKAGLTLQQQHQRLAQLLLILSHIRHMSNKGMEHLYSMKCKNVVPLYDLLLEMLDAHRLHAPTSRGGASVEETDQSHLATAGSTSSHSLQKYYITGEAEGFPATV
Protocol: as §4, §5, §6, §7, §8, §9, §10, §11

[1] = molecular target: T3, human Cereblon WT GST-tagged protein (Homo sapiens, UniProt Q96SW2); assay: CRBN binding, HTRF (CEREBLON BINDING kit); settings: HTRF; for IC50: Table II-1, CRBN binding
T3 construct: purchased CISBIO 64BDCRBNPEH
T3 sequence (Q96SW2 whole entry): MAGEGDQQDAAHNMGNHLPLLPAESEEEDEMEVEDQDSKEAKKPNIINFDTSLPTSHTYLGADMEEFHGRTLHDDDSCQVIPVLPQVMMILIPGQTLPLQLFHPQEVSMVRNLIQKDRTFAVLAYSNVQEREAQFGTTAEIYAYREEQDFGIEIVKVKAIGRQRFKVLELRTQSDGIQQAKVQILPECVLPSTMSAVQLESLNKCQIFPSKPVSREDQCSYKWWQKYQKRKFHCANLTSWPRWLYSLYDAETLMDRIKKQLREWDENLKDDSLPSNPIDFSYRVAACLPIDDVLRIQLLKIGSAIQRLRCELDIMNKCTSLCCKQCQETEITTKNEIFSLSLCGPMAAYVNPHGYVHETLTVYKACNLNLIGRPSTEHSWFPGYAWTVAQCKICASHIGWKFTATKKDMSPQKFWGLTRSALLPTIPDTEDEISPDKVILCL
Method in brief: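 Competitive HTRF: GST-tagged human WT Cereblon mixed with compound, Thalidomide-Re tracer and GST Eu antibody, incubated 3 h at room temperature. Signals read at 620 and 665 nm.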

BXPC-3 = assay: CCK-8 proliferation, BXPC-3; format: cell-based; settings: Homo sapiens, 96 hours, read-out: Inhibitory activity (IC50) on tumor cell proliferation, BXPC-3
Method in brief: as §1

THP-1 = assay: CCK-8 proliferation, THP-1; format: cell-based; settings: Homo sapiens, 72 hours, read-out: Inhibitory activity (IC50) on tumor cell proliferation, THP-1
Method in brief: as §1

MGC-803 = assay: CCK-8 proliferation, MGC-803 (heads: MGC80-3, MGC803); format: cell-based, Human; settings: Homo sapiens, MGC-803; CCK-8; 72 hours; read-out: Inhibitory activity (IC50) on tumor cell proliferation, MGC80-3
Method in brief: as §1

H520 = assay: CCK-8 proliferation, H520; format: cell-based; settings: Homo sapiens, NCI-H520, 96 hours, read-out: Inhibitory activity (IC50) on tumor cell proliferation, H520
Protocol: as §2, §3

Work on `O=C1CCC(c2ccc(CN3CCC(n4cc(NC(=O)c5coc(-c6ccnc(NCC(F)(F)F)c6)n5)c(C(F)F)n4)CC3)cc2F)C(=O)N1` (stereo not drawn) [GT-04087, N-(3-(difluoromethyl)-1-(1-(4-(2,6-dioxopiperidin-3-yl)-3-fluorobenzyl)piperidin-4-yl)-1H-pyrazol-4-yl)-2-(2-((2,2,2-trifluoroethyl)amino)pyridin-4-yl)oxazole-4-carboxamide] yielded an IC50 (Jurkat) of 10 to 50 nM, an IC50 (CCRF-CEM) of 1 to 10 nM and an IC50 (DU-145) of 500 to 1000 nM. For the same compound, the IC50 (SU-DHL-4) was 500 to 1000 nM, the “Degradation of substrate protein CDK9 (substrate protein remaining %)” value (CDK9) was “A (A is defined as 0% ≤ substrate protein remaining % ≤ 80%)” and the IC50 (TMD8) was 50 to 100 nM.

With `O=C1CCC(c2ccc(CN3CCN(C4CCN(c5ccc([C@@H]6c7ccc(O)cc7CC[C@@H]6c6ccccc6)cc5)CC4)CC3)cc2)C(=O)N1` (stereo partly drawn) [GT-04684, 3-(4-((4-(1-(4-((1R,2S)-6-hydroxy-2-phenyl-1,2,3,4-tetrahydronaphthalen-1-yl)phenyl)piperidin-4-yl)piperazin-1-yl)methyl)phenyl)piperidine-2,6-dione] the “Degradation of substrate protein ER (substrate protein remaining %)” value (ER) was “A (A is defined as 0% ≤ substrate protein remaining % ≤ 80%)” and the IC50 [1] was 1000 to 1900 nM.

With `N#CC1(CNc2nc(-c3cc(NC4CCN(Cc5ccc(C6CCC(=O)NC6=O)cc5)CC4)ncc3Cl)cs2)CCOCC1` (stereo not drawn) [GT-04074, 4-(((4-(5-chloro-2-((1-(4-(2,6-dioxopiperidin-3-yl)benzyl)piperidin-4-yl)amino)pyridin-4-yl)thiazol-2-yl)amino)methyl)tetrahydro-2H-pyran-4-carbonitrile] the “Degradation of substrate protein CDK9 (substrate protein remaining %)” value (CDK9) was “A (A is defined as 0% ≤ substrate protein remaining % ≤ 80%)”.

For `O=C(NC1CCNCC1)c1[nH]ncc1NC(=O)c1c(Cl)cccc1Cl` [AT7519, reference compound], the IC50 (Jurkat) was 100 to 500 nM, the IC50 (CCRF-CEM) was 500 to 1000 nM and the IC50 (DU-145) was 500 to 1000 nM. For the same compound, the IC50 (SU-DHL-4) was 100 to 500 nM and the IC50 (TMD8) was 500 to 1000 nM.

Compound `Cn1ncc(-c2nc(NC3CCN(Cc4ccc(C5CCC(=O)NC5=O)c(F)c4)CC3)ncc2Cl)c1CC1CC1` (stereo not drawn) [GT-04051, 3-(4-((4-((5-chloro-4-(5-(cyclopropylmethyl)-1-methyl-1H-pyrazol-4-yl)pyrimidin-2-yl)amino)piperidin-1-yl)methyl)-2-fluorophenyl)piperidine-2,6-dione] has an IC50 (CCRF-CEM) of 500 to 1000 nM, an IC50 (DU-145) of 100 to 500 nM and an IC50 (SU-DHL-4) of 500 to 1000 nM. For the same compound, the “Degradation of substrate protein CDK9 (substrate protein remaining %)” value (CDK9) was “A (A is defined as 0% ≤ substrate protein remaining % ≤ 80%)” and the IC50 (TMD8) was 500 to 1000 nM.

With `O=C1CCC(c2ccc(CN3CCC(n4cc(NC(=O)c5coc(-c6ccnc(NCC(F)(F)F)c6)n5)c(C(F)F)n4)CC3)cc2)C(=O)N1` (stereo not drawn) [GT-04121, N-(3-(difluoromethyl)-1-(1-(4-(2,6-dioxopiperidin-3-yl)benzyl)piperidin-4-yl)-1H-pyrazol-4-yl)-2-(2-((2,2,2-trifluoroethyl)amino)pyridin-4-yl)oxazole-4-carboxamide] the IC50 (Jurkat) was 100 to 500 nM, the IC50 (CCRF-CEM) was 10 to 50 nM and the IC50 (DU-145) was 100 to 500 nM. The IC50 (SU-DHL-4) was 500 to 1000 nM, the “Inhibition rate (%) at 0.5µM” value ([1]; Table II-2, CRBN binding screening, at 0.5µM) was “a2 (20% < a2 ≤ 30%)” and the “Inhibition rate (%) at 2 µM” value ([1]; Table II-2, CRBN binding screening, at 2 µM) was “a6 (60% < a6 ≤ 80%)”. For the same compound, the “Degradation of substrate protein CDK9 (substrate protein remaining %)” value (CDK9) was “A (A is defined as 0% ≤ substrate protein remaining % ≤ 80%)” and the IC50 (TMD8) was 100 to 500 nM.

With `CCC(=C(c1ccc(O)cc1)c1ccc(N2CCN(Cc3ccc(C4CCC(=O)NC4=O)cc3)CC2)cc1)c1ccc(O)cc1` (stereo not drawn) [GT-04149, 3-(4-((4-(4-(1,2-bis(4-hydroxyphenyl)but-1-en-1-yl)phenyl)piperazin-1-yl)methyl)phenyl)piperidine-2,6-dione] the “Degradation of substrate protein ER (substrate protein remaining %)” value (ER) was “A (A is defined as 0% ≤ substrate protein remaining % ≤ 80%)”.

`Cn1ncc(-c2nc(NC3CCN(Cc4ccc(C5CCC(=O)NC5=O)cc4)CC3)ncc2Cl)c1CC1CC1` (stereo not drawn) [GT-04050, 3-(4-((4-((5-chloro-4-(5-(cyclopropylmethyl)-1-methyl-1H-pyrazol-4-yl)pyrimidin-2-yl)amino)piperidin-1-yl)methyl)phenyl)piperidine-2,6-dione] was tested, and the IC50 (Jurkat) was 100 to 500 nM, the IC50 (DU-145) was 10 to 50 nM and the “Degradation of substrate protein CDK9 (substrate protein remaining %)” value (CDK9) was “A (A is defined as 0% ≤ substrate protein remaining % ≤ 80%)”.

`O=C1CCC(c2ccc(CN3CCN(C4CCN(c5ccc([C@@H]6c7ccc(O)cc7CC[C@@H]6c6ccccc6)cc5)CC4)CC3)cc2F)C(=O)N1` (stereo partly drawn) [GT-04670, 3-(2-fluoro-4-((4-(1-(4-((1R,2S)-6-hydroxy-2-phenyl-1,2,3,4-tetrahydronaphthalen-1-yl)phenyl)piperidin-4-yl)piperazin-1-yl)methyl)phenyl)piperidine-2,6-dione] was tested, and the “Degradation of substrate protein ER (substrate protein remaining %)” value (ER) was “A (A is defined as 0% ≤ substrate protein remaining % ≤ 80%)” and the IC50 [1] was 500 to 1000 nM.

`O=C1CCC(Nc2cccc(CN3CCN(C4CCN(c5ccc([C@@H]6c7ccc(O)cc7CC[C@@H]6c6ccccc6)cc5)CC4)CC3)c2)C(=O)N1` (stereo partly drawn) [GT-04674, 3-((3-((4-(1-(4-((1R,2S)-6-hydroxy-2-phenyl-1,2,3,4-tetrahydronaphthalen-1-yl)phenyl)piperidin-4-yl)piperazin-1-yl)methyl)phenyl)amino)pip eridine-2,6-dione] was tested, and the “Degradation of substrate protein ER (substrate protein remaining %)” value (ER) was “A (A is defined as 0% ≤ substrate protein remaining % ≤ 80%)”.

In the case of `C[C@]12CC[C@H](O)CC1=CC[C@@H]1[C@@H]2CC[C@]2(C)C(c3cccnc3)=CC[C@@H]12` [abiraterone], the IC50 (BXPC-3) is reported as greater than 10000 nM, the IC50 (THP-1) is reported as greater than 10000 nM and the IC50 (MGC-803) is reported as greater than 10000 nM. For the same compound, the IC50 (DU-145) was greater than 10000 nM and the IC50 (H520) was greater than 10000 nM.
